Here are results for two compounds from US9072729B2, “Method for treating fibrosis and cancer with imidazolium and imidazolinium compounds” (Agency for Science, Technology and Research, priority 2008, dated 2015).

The conditions of series [1]: dosage of 30 mg/kg (Lin et al. 2004); cited from earlier work.
For the next series, the system named is HepG2 cells. Description: Annexin V staining and flow cytometry, HepG2. To be noted: HepG2, 24 hr; TRAIL 100 ng/ml. In kind it is cell-based, human. The method, then: (§1) FIG. 22. […] HLE or HepG2 cells were incubated with DBZIM of various concentrations for 6 hr, and assayed for caspase 3/7 activity and LDH releasing (expressed as % toxicity). DBZIM induced apoptosis as characterized by annexin V staining using flow cytometer in HLE (E) and HepG2 (F). Scatter plot and histogram gave the representative information on the cell population distribution while bar graphs quantified the percentage of apoptotic cells from the histogram. HLE and HepG2 cells were treated by DBZIM of various concentrations for 24 hr before harvesting for annexin V staining and flow cytometric analysis.
HLE and HepG2 cells were treated with various concentrations of DBZIM or TRAIL (100 ng/ml) for 24 hr, harvested and labeled with Annexin V-FITC (BioVision, CA, USA). The labeled cells were analysed by flow cytometry FACSCalibur ([…], NJ, USA) and CellQuest software. Cells showing green staining in the plasma membrane were considered as apoptotic cells.
On the technique in general: A flow cytometer gives signals particle by particle.

The subject of the next series is C6. Description: Proliferation assay (MTS), glioma C6. It counts as cell-based. To be noted: Rattus norvegicus, 48 h; C6, determined at day 2. The method, then: (§2) FIG. 30. DBZIM inhibited cell proliferation in glioma cell line C6 (A) and U87 MG (C) and induced caspase 3/7 activity in C6 (B) and U87 MG (D). C6 or U87 cells were incubated with DBZIM of various concentrations for 48 hr for proliferation assay and 6 hr for caspase 3/7 activation assay. Proliferation was measured using MTS kit from Promega and expressed as relative cell proliferation with control group was normalized to 1. Caspase 3/7 activity was quantified using a kit from Promega and also expressed as relative caspase 3/7 activity of treated groups over control group.
(§3) Proliferation of Glioma cell lines: U87 MG and C6 under the treatment of DBZIM was examined using 3-(4,5-dimethylthiazol-2-yl)-5-(3-carboxymethoxyphenyl)-2-(4-sulfophenyl)-2H-tetrazolium (MTS) based proliferation assay kit (Promega, Wis., USA). MTS reagent was added to the control and treated cells (after 48 hr) directly and the absorbance signal was read at 490 nm using a Tecan Safire II plate reader.

The test system of another series is AP-1. Description: Western blot of AP-1 complex members in nuclear extracts. It counts as cell-based, human. The following applies: 24 hr. As for the experimental part:
FIG. 28. DBZIM induced up-regulation of AP-1 expression in HepG2 cells. HepG2 cells were treated with DBZIM for 24 hr. Cytoplasmic and nuclear proteins were fractionated using a kit from Pierce. 15 μg of nuclear proteins were resolved in 4-12% gradient PAGE-SDS gel. The target proteins were recognized by their respective antibodies, and visualized by the ECL method. The membrane was stripped and re-probed for Tata binding protein TBP as loading control.
Protein extracts were prepared by lysing cell pellet in RIPA buffer (Pierce, Ill., USA) for total protein extract, or in NE-PER reagent from Pierce (Pierce, Ill., USA) for nuclear and cytoplasmic fractions, or in a Kit from BioVision (CA, USA) for mitochondria and cytosol fractions. Protein content was quantified using BCA Kit (Pierce, Ill., USA). […] The membrane was then probed with primary antibodies against Bcl-XL, Bak, Bcl-2α, Bax (Lab Vision Corp., CA, USA), survivin, xIAP, cIAP (R&D systems Inc., MN, USA), c-Jun, c-Fos, JunB, JunD, Fra-1, Fra-2 (Santa Cruz Biotechnology, CA, USA) respectively, and detected by horseradish peroxidase-conjugated secondary antibody (Santa Cruz Biotechnology, CA, USA). Protein bands were recorded on X-ray film by reacting with ECL chemiluminescence reagents (Amersham Biosciences, NJ, USA). […]
On the technique in general: Immunoblotting shows a protein as a band on a membrane.

For series [2], the system named is HLE cells. Description: Cell based caspase 3/7 and LDH assays, HLE. More on the design: species or system human. To be noted: 6 hr. As for the experimental part:
as §1
(§4) Capspase 3/7 activity and lactate dehydrogenase (LDH) release were measured by Fluorometric assays (Promega Corp., WI, USA). The HCC cells were cultured in 96-well plate and treated with DBZIM of various concentrations for 6 hr before assays. For caspase 3/7 assay, medium was removed and substrate buffer was added to lyse the cell and react with caspase 3/7 to give rise to fluorescence signal which was read at Ex=485 nm and Em=530 nm on a Tecan Safire II plate reader after 1 hr incubation. The caspase 3/7 activity of sample cells with the compound treatment was expressed as relative fold change after normalizing to the control cells. The LDH assay (indicative of membrane integrity) was performed using a Kit from Promega Corp according to manufactor's instructions.

Series [3] deals with HLE cells. Description: HLE cell proliferation assay (cell count, BrdU; HCS). To be noted: 0-1.25 mM, 48 h. In kind it is cell-based, human. The method, then: FIG. 21. DBZIM inhibited cell proliferation and disrupted cell cycle in HLE cells (A). DBZIM inhibited HCC cell proliferation. HLE cells were seeded at a density of 5000 cells/well in 96-well plate, and cultured for 18-24 h in 10% […] DMEM before the addition of various compounds (0-1.25 mM) in 10% FBS DMEM for 48 h of proliferation before assaying. Cell count was calculated based on Hoechst dye staining and BrdU incorporation was based on the total fluorescence intensity of antibody staining. (B). DBZIM arrested HCC cells at G0/G1 phase. HLE cells were incubated with DBZIM (0, 1, 3 mM) for 24 hr before fixation and DAPI staining for DNA content (2N vs. 4N) determination.
HLE cells were grown, treated by compounds in 6 replicates for 48 hr in a 96-well plate. Cells were then fixed by using 4% paraformaldehyde and stained by DAPI and BrdU antibody using Hitkit (Thermo Scientific, IL, USA). Cells were imaged and analyzed on ArrayScan VTI HCS reader (Thermal Scientific, PA, USA). Cell numbers were counted based on nuclear staining and BrdU incorporation was determined and expressed as percentage of positively stained cells.
The effect of DBZIM on the HCC cell proliferation and cell cycle was characterized on a high-content screening (HCS) platform. Under each concentration, at lease 1000 cells were analyzed. […]

Series [4] concerns U87 MG. Description: Proliferation assay (MTS), glioma U87 MG. In kind it is cell-based. The following applies: Homo sapiens, U-87 MG, 48 h, determined at day 2. As for the experimental part: as §2, §3
The test system of series [5] is U87 MG. Description: Caspase 3/7 activity in U87 MG. It counts as cell-based, human. To be noted: 2 mM, 6 hr. As for the experimental part: as §2, §4

With “(−)-Epigallocatechin gallate [EGCG, reference compound]”, the “half life in rat blood” value in series [1] is about 1.2 h.
One may read the IC50 as the point on the concentration scale where inhibition reaches its midpoint. Low readings indicate greater potency, high ones weaker potency. `[Br-].c1ccc(Cn2cc[n+](Cc3ccccc3)c2)cc1` [DBZIM, 1,3-bisbenzylimidazolium bromide]: the “apoptosis (annexin V staining)” value with HepG2 cells is “dose-dependently induced apoptosis”. The half-inhibitory concentration (IC50) in the series on C6 worked out at 1000 µM. In addition, the “AP-1 complex members (C-Jun, Jun B, Jun D, Fra-1; not Fra-2)” value in the series with AP-1 is on record as “significantly induced”. Besides, in the series with HLE cells [2], the LDH release entry was “least affected” and the “caspase 3/7 activity” value is “enhanced”. In addition, in the series with HLE cells [3], the “HLE cell proliferation (total cell number, BrdU positive cells)” value is listed as “inhibited the HLE cell proliferation”. The compound also had a half-maximal inhibitory concentration (IC50) in the series on U87 MG [4] of 2100 µM. For the same compound, in the series on U87 MG [5], the “elevation of caspase 3/7” value is on record as 17 folds.
